This is an account of results in ChEMBL document CHEMBL3044663, “Synthesis and antimicrobial activities of novel bisacridine-1,8-dione derivatives” (2011).

The source made the active and inactive calls. The rule behind the calls is not given here.

What all share (assay type): functional
Test [1] deals with Saccharomyces cerevisiae. Kind of test: Antifungal activity against Saccharomyces cerevisiae TP (3-2) after 24 hr by disk diffusion method. (In general: In agar diffusion tests the substance spreads into inoculated agar from a disc or well.)
Test [2] relates to Escherichia coli. The test can be described thus: Antibacterial activity against Escherichia coli ATCC 35218 after 24 hr by disk diffusion method.
In test [3] the test system is Pseudomonas aeruginosa. The test can be described thus: Antibacterial activity against Pseudomonas aeruginosa ATCC 27853 after 24 hr by disk diffusion method.
The subject of test [4] is Bacillus cereus. The test can be described thus: Antibacterial activity against Bacillus cereus RSKK 863 after 24 hr by disk diffusion method.
In test [5] the test system is Staphylococcus epidermidis. Kind of test: Antibacterial activity against Staphylococcus epidermidis Mu 30 after 24 hr by disk diffusion method.
Test [6] relates to Salmonella. Kind of test: Antibacterial activity against Salmonella 21.3 after 24 hr by disk diffusion method.
In test [7] the test system is Candida albicans. Kind of test: Antifungal activity against Candida albicans 16231 after 24 hr by disk diffusion method.
The test system of test [8] is Staphylococcus aureus. Kind of test: Antibacterial activity against Staphylococcus aureus ATCC 25923 after 24 hr by disk diffusion method.
For test [9], the system named is Shigella sonnei. The test can be described thus: Antibacterial activity against Shigella sonnei RSKK 877 after 24 hr by disk diffusion method.
Test [10] has as its system Bacillus subtilis. Kind of test: Antibacterial activity against Bacillus subtilis RSKK 240 after 24 hr by disk diffusion method.
Also: test concentration or dose not given here.

`COc1cccc(N2C3=C(C(=O)CCC3)C(c3cccc(C4C5=C(CCCC5=O)N(c5cccc(OC)c5)C5=C4C(=O)CCC5)c3)C3=C2CCCC3=O)c1`: the “diameter of the inhibition zone (DIZ)” value in test [1] is on record as 11 mm; in [2], 14 mm; in test [3], 9 mm; in test [5] it was 11 mm; in test [6], 12 mm; in [7] it was 12 mm. In addition, the “diameter of the inhibition zone (DIZ)” value in test [8] is 16 mm; in test [9], 10 mm; in [10], 11 mm. Moreover, the “diameter of the inhibition zone (DIZ)” value in [4] was “inactive”.
Turning to `CC1(C)CC(=O)C2=C(C1)N(c1cccc(C#N)c1)C1=C(C(=O)CC(C)(C)C1)C2c1cccc(C2C3=C(CC(C)(C)CC3=O)N(c3cccc(C#N)c3)C3=C2C(=O)CC(C)(C)C3)c1`, the “diameter of the inhibition zone (DIZ)” value came to 14 mm in [1]; 13 mm in test [2]; 8 mm in test [3]; 8 mm in [5]; 10 mm in test [6]; 16 mm in test [7]. Further, the “diameter of the inhibition zone (DIZ)” value came out at 10 mm in test [8] and 9 mm in [9]. In addition, the “diameter of the inhibition zone (DIZ)” value in test [4] and in [10] was “inactive” in each case.
For the molecule `N#Cc1cccc(N2C3=C(C(=O)CCC3)C(c3cccc(C4C5=C(CCCC5=O)N(c5cccc(C#N)c5)C5=C4C(=O)CCC5)c3)C3=C2CCCC3=O)c1`, the “diameter of the inhibition zone (DIZ)” value in test [1] was 17 mm; in test [2], 8 mm; in test [3] it was 10 mm; in [6], 10 mm; in [7], 27 mm; in [8] it was 9 mm. Further, in test [9], the “diameter of the inhibition zone (DIZ)” value is 12 mm. The “diameter of the inhibition zone (DIZ)” value in [4], in test [5] and in test [10] was “inactive” in each case.
